Results on 14 molecules are retold here after patent US8911984B2, “Tannase, gene encoding same, and process for producing same” (Amano Enzyme Inc., priority 2008, dated 2014).

One series deals with Tannase. As to the kind of experiment: Effect of metallic ion and inhibitor on tannase activity. The series is classed as biochemical, Aspergillus awamori. The conditions noted are these: 30° C. 30 minutes, pH 5.0; for Relative activity (%): no addition = 100%. As to the method:
0.5 mL of a 50 mM citric acid buffer solution (pH 5.0) containing 1% tannic acid (Tannic acid, ACS Reagent [SIGMA]) is added with 0.5 ml of an enzyme solution, […], thereafter adding a 0.2 M acetic acid buffer solution (pH 5.0) containing 2% BSA to terminate the reaction. After terminating the reaction, the reaction solution is stood still in ice for 20 minutes and then centrifuged at 3,000 rpm for 20 minutes. The obtained supernatant is diluted 50 holds and an absorbance at a wavelength of 260 nm is measured. An analytical curve (standard curve) is formed using gallic acid and an enzyme amount that releases 1 μM of gallic acid for 1 minute is assumed to be 1 unit. […] The activity increased by addition of urea.

Series [1] has as its system tannase derived from Aspergillus awamori. As to the kind of experiment: Substrate specificity of tannase (rhodanine method). The conditions noted are these: 0.17% tannic acid or 10 mM gallic acid ester, pH 5.0, 37° C., 30 minutes; tannic acid = 100%. Format: biochemical. As to the method:
As described below, the method of Sharma (Anal. Biochem. 279, 85-89, 2000) was modified and substrate specificity was measured.
125 μL of a 50 mM citric acid buffer solution (pH 5.0) containing 0.17% tannic acid or 10 mM gallic acid esters (methyl gallate, ethyl gallate, propyl gallate, and isoamyl gallate) is added with 125 μL of an enzyme solution and incubated at 37° C. for 30 minutes, followed by adding and mixing 300 μL of methanol containing 0.667% Rhodanine, and the reaction solution is stood still for 10 minutes. Next, 200 μL of 0.5 N NaOH is added and mixed and the reaction solution is stood still for 10 minutes. Subsequently, the reaction solution is diluted with 9 mL of distilled water and left for 5 minutes, and an absorbance at a wavelength of 520 nm is measured. An analytical curve (standard curve) was formed using gallic acid and an activity that releases 1 μM of gallic acid for 1 minute is assumed to be 1 unit.
Substrate specificities to tannic acid and gallic acid esters (methyl gallate, ethyl gallate, propyl gallate, and isoamyl gallate) were measured in the above-mentioned measurement method of substrate specificity. When a dissolution activity to tannic acid was assumed to be 100%, a dissolution activity of each of the gallic acid esters was 41% for methyl gallate, 30% for ethyl gallate, 29% for propyl gallate, and 27% for isoamyl gallate.

Series [2] is described as follows: Optimum reaction pH of tannase. Format: biochemical. The conditions noted are these: 37° C., 30 minutes, 1% tannic acid; citric acid buffer pH 3-6, phosphate buffer pH 6-8. As to the method:
(§1) 0.5 mL of a 50 mM citric acid buffer solution (pH 5.0) containing 1% tannic acid (Tannic acid, ACS Reagent [SIGMA]) is added with 0.5 ml of an enzyme solution, and incubated at 37° C. for 30 minutes, thereafter adding a 0.2 M acetic acid buffer solution (pH 5.0) containing 2% BSA to terminate the reaction. After terminating the reaction, the reaction solution is stood still in ice for 20 minutes and then centrifuged at 3,000 rpm for 20 minutes. The obtained supernatant is diluted 50 holds and an absorbance at a wavelength of 260 nm is measured. An analytical curve (standard curve) is formed using gallic acid and an enzyme amount that releases 1 μM of gallic acid for 1 minute is assumed to be 1 unit.
The optimum reaction pH was measured under the reaction condition of 37° C. for 30 minutes in each buffer solution (citric acid buffer solutions at pH 3.0, 3.5, 4.0, 4.5, 5.0, 5.5 and 6.0, and phosphate buffer solutions at pH 6.0, 6.5, 7.0, 7.5 and 8.0) using 1% tannic acid for a substrate. Each measurement result was shown as a relative activity, assuming a value of a pH showing the maximum activity as 100% (FIG. 2). The optimum reaction pH was about 5.5.

Series [3] can be described thus: Thermostability of purified tannase (residual activity after thermal treatment). Format: biochemical. The conditions noted are these: 30 minutes, 50 mM citric acid buffer solution (pH 5.0). As to the method: as §1
The purified enzyme was thermally treated for 30 minutes at each temperature of 30° C., 35° C., 40° C., 45° C., 50° C., 55° C., 60° C., 65° C., 70° C., 75° C. and 80° C. in a 50 mM citric acid buffer solution (pH 5.0), and a residual activity was then measured in the above-mentioned measurement method of a tannase activity. Each measurement result was shown as a residual activity, assuming a thermally untreated activity as 100% (FIG. 3). The purified enzyme had 90% or more of a residual activity in the thermal treatment at 65° C. for 30 minutes and was stable until 65° C.

Series [4] is described as follows: pH stability of purified tannase. The conditions noted are these: 30° C., 30 minutes. Format: biochemical. As to the method: as §1
The purified enzyme was treated in each buffer solution (citric acid buffer solutions at pH 3.0, 3.5, 4.0, 4.5, 5.0, 5.5 and 6.0, and phosphate buffer solutions at pH 6.0, 6.5, 7.0, 7.5 and 8.0) at 30° C. for 30 minutes and diluted 5 holds with a 0.2 M acetic acid buffer solution (pH 5.0), and an activity was measured in the above-mentioned measurement method of a tannase activity. Each measurement result was shown as a relative activity, assuming a value of a pH showing the maximum activity as 100% (FIG. 4). The stable pH range was from 3 to 8.

The nature of series [5]: Optimum reaction temperature of tannase. Format: biochemical. The conditions noted are these: 50 mM citric acid buffer solution (pH 5.0), 30-80° C. tested. As to the method:
as §1
According to the above-mentioned measurement method of a tannase activity, the purified enzyme was reacted at reaction temperatures of 30° C., 35° C., 40° C., 45° C., 50° C., 55° C., 60° C., 65° C., 70° C., 75° C. and 80° C. Each measurement result was shown as a relative activity, assuming a value at a temperature showing the maximum activity as 100% (FIG. 1). The optimum reaction temperature was around 70° C.

The nature of series [6]: Isoelectric point by isoelectric electrophoresis (PhastSystem). The series is classed as physicochemical. As to the method: When the isoelectric point of the present enzyme was measured by isoelectric electrophoresis using PhastSystem (GE Healthcare Bio-Sciences Ltd.), it was 6.4.

As for `[Ca+2]` [Ca^2+], in the series on Tannase (20 mM metallic ion or EDTA), the “Relative activity (%)” value is on record as 109%.
Still for that read-out and setting: the figure for `[Cu+2]` [Cu^2+] is 72%; for `O=C(O)CN(CCN(CC(=O)O)CC(=O)O)CC(=O)O` [EDTA] it is 101%; for `[Fe+3]` [Fe^3+] it is 91%.
The same measure, in the same setting: the figure for `[Mg+2]` [Mg^2+] is 118%.
Same read-out and setting: the figure for `[Mn+2]` [Mn^2+] is 98%.
As to `NC(N)=O` [Urea, urea], in the series with Tannase, the “effect on tannase activity (in words)” value was “increased”. In addition, the “Relative activity (%)” value in the series on Tannase (urea 0.4 M) was 108%; in the series with Tannase (urea 0.8 M), 117%; in the series on Tannase (urea 2 M), 150%; in the series with Tannase (urea 4 M), 197%.
With `[Zn+2]` [Zn^2+], in the series on Tannase (20 mM metallic ion or EDTA), the “Relative activity (%)” value is 82%.
With `CCOC(=O)c1cc(O)c(O)c(O)c1` [ethyl gallate], the “dissolution activity relative to tannic acid” value in series [1] amounted to 30%.
On to `CC(C)CCOC(=O)c1cc(O)c(O)c(O)c1` [isoamyl gallate], for which the “dissolution activity relative to tannic acid” value in series [1] was determined as 27%.
On the same count and under the same terms, to `COC(=O)c1cc(O)c(O)c(O)c1` [methyl gallate] belongs 41%; to `CCCOC(=O)c1cc(O)c(O)c(O)c1` [propyl gallate], 29%.
For the molecule `O=C(OC[C@H]1O[C@@H](OC(=O)c2cc(O)c(O)c(OC(=O)c3cc(O)c(O)c(O)c3)c2)[C@H](OC(=O)c2cc(O)c(O)c(OC(=O)c3cc(O)c(O)c(O)c3)c2)[C@@H](OC(=O)c2cc(O)c(O)c(OC(=O)c3cc(O)c(O)c(O)c3)c2)[C@@H]1OC(=O)c1cc(O)c(O)c(OC(=O)c2cc(O)c(O)c(O)c2)c1)c1cc(O)c(O)c(OC(=O)c2cc(O)c(O)c(O)c2)c1` [tannic acid], the “dissolution activity relative to tannic acid” value in series [1] came to 100%.

B1: purified enzyme: tannase purified from Aspergillus awamori NBRC-4033 (IFO-4033), amino acid sequence SEQ ID NO: 5 (protein, listed as Aspergillus awamorii)
chain: MRSPAWASIAITAFAALANAGTPSTLAELCTDSIVKAALPPSEFIKGITIDSDSVTTEVVTNSSFSSEFYPSATIDYCNVTFAYSHDGIDGDQVLLEIWLPAPTNFKNRWLSTGGGGYAINSGDQSLPGGVMYGAASGMTDGGFGGFSNNADTAMLLANGTLNYETLYMFAYKAHRELSLLGKALTRNVYGMSDSDKLYAYYQGCSEGGREGWSQVQRFGDEWDGAIIGAPAFRWSFQQTQHLYSNIVEKTLDYYPPPCELDKIVNETIAACDAMDGKVDWVVARTDLCLLDFDISTIEGKPYSCAASRGTPAQNGTVSAKGIEVAKTIINGLHDSQGRRVYFSYQPTAAFDDAETQYNSTTGQWGLDIDQLGGEYIALLVDKNGTTLDSLDGITYDTLKDWMISGLQEYYSTLQTTWPDLTPFHNAGGKVIHFHGDADFSIPTAASIRYWESVRSIMYPNKDYNSSAEALNEWYRLYTVPGAGHCATNDAMPNGPFPQTNMAVMIDWVENGVVPTTLNATVLQGENEGQNQQLCAWPLRPLWTNNGTTMECVYNQRSIDSWHYDLDAVPMPVY
B1: the “optimum reaction pH” value in series [2] is “about 5.5”. The “residual activity after thermal treatment” value in series [3] (65° C., untreated = 100%) is reported as no less than 90%. Moreover, in series [3], the “temperature up to which enzyme is stable” value is no more than 65 °C. The “activity with respect to the maximum activity after treatment within pH 3 to 8” value in series [4] is no less than 80%. In series [5], the optimum reaction temperature result was “around 70 °C”. In addition, the isoelectric point in series [6] turned out to be 6.4.
